Consider eleven compounds from patent US9376423B2, “PKC-epsilon inhibitors” (The Regents of the University of California, priority 2010, dated 2016).

Read-outs that look alike come from different tables or passages of the source.

Holding throughout (type): biochemical
The target of test [1] is T1, PKCε (Homo sapiens, UniProt Q02156).
T1 sequence (Q02156 1-737): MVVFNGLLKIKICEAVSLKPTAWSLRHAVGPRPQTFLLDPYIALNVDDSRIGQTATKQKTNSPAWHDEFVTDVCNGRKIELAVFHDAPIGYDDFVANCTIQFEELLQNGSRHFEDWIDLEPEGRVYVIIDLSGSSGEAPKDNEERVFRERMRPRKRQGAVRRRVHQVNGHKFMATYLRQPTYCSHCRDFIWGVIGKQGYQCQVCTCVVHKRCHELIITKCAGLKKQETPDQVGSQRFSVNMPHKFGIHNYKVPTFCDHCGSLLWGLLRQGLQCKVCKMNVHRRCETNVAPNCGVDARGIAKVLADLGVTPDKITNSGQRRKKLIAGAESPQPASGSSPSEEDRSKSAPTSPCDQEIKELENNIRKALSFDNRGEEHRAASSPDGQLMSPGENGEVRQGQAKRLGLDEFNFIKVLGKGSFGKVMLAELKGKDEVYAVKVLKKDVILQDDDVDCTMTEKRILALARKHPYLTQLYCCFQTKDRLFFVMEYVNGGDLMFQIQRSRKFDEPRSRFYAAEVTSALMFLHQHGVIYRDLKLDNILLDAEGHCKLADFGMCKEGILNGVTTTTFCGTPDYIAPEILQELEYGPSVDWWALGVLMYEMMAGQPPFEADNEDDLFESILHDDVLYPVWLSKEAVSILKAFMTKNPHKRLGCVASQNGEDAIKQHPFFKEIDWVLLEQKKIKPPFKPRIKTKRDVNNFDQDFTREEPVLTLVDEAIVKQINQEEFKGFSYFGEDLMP
As to the kind of experiment: FRET based LANCE Ultra kinase assay. How it is done: Certain compounds of this invention were tested in the captioned assay.

Test [2] deals with T1, PKCε. Nature of the test: Primary PKCε phosphotransferase assay. Also noted: FLAG; made in house; host or cells: COS-7. Here is the method: The assay mixture can contain 2 ng FLAG-tagged human PKCε expressed and purified from COS-7 cells in 25 μl kinase buffer containing 20 mM Tris-HCl, pH 7.4, 0.25 mM EGTA, 0.1 mg/ml BSA, 0.72% TritonX-100, 10 mM MgCl2, 0.48 μg/μl L-α-phosphatidylserine (PS) and 0.107 μg/μl sn-1,2-dioleoylglecerol (DG) (Avanti Polar Lipids, Alabaster, Ala., USA), 2 μM K(Biotin)-[…], 2.5 μM ATP and 0.05 μCi [^32γ-P]ATP. After incubation at 27° C. for 90 min, the reaction is terminated by adding 12.5 μl of 7.5 M of guanidine hydrochloride. Eight microliters of reaction mixture is spotted onto a pre-cut streptavidin-coated SAM Biotin Capture membrane. […] The membrane is then air dried at room temperature for 60 min and radioactivity remaining on the membrane can be measured by liquid scintillation counting. Specific PKCε activity can then be calculated as the difference between cpms detected in the presence and absence of lipids (PS and DG). Maximal PKCε activity (positive control) can be detected in reactions lacking an inhibitor. Complete inhibition (negative control) can be measured in the presence of the general PKC inhibitor 5 μM bisindolylmaleimide I. The normalized percent inhibition (NPI) can be calculated at each concentration of inhibitor by the formula: […]
IC50 values can be calculated from normalized dose-response curves by nonlinear regression analysis. […]

Test [3] has as its target T2, PKCδ (Homo sapiens, UniProt Q05655).
T2 construct: purchased Invitrogen (Carlsbad, Calif., USA)
Nature of the test: Inhibition of novel PKCδ (Example 4). The following applies: n = 3; for inhibition at 10 µM: 10 μM inhibitor, read-out: Percent inhibition of PKC activity, PKCδ; for IC50: ± SE, read-out: Log IC50 (M) PKCδ (converted). An excerpt:
(§1) Compound selectivity for inhibiting PKCε and not other PKC isozymes or ROCK1 can be determined according to the following assay. Specificity counter screens can be performed against one member of each subclass of PKCs (conventional, novel and atypical).
(§2) For example, to measure inhibition of conventional PKCγ, novel PKCδ, and atypical PKCζ, the same kinase assay disclosed above for PKCε can be used with recombinant human PKCγ, PKCδ, or PKCζ purchased from Invitrogen (Carlsbad, Calif., USA) in place of PKCε, with 0.4 mM CaCl2 assay buffer for PKCγ.

The target of test [4] is T1, PKCε. Nature of the test: Inhibition of PKCε (Example 4). Conditions: for IC50: ± SE, read-out: Log IC50 (M) PKCε (converted).
For test [5], the target named is T3, PKCθ (Homo sapiens, UniProt Q04759).
T3 construct: purchased Invitrogen P2996
As to the kind of experiment: Inhibition of novel PKCθ (Example 4). Conditions: n = 3; for inhibition at 10 µM: 10 μM inhibitor, read-out: Percent inhibition of PKC activity, PKCθ; for IC50: ± SE, read-out: Log IC50 (M) PKCθ (converted). An excerpt:
Inhibition of PKC theta activity can be measured using the same primary phosphotransferase assay for PKCε except one substitutes recombinant human PKC theta purchased from Invitrogen for PKCε. PKC theta can also be assayed with a fluorescence polarization (FP) assay using the commercially available Protein Kinase C Assay Kit, Red, from Invitrogen (Product ID No P2941), essentially in accordance with the protocol supplied by the manufacturer. The substrate used is […] (MW 1561), which can be obtained from Invitrogen (Product ID No P2760). The isozyme PKC theta can be obtained from Invitrogen (Product ID No P2996).

Test [6] concerns the target T4, PKCγ (Homo sapiens, UniProt P05129).
T4 construct: purchased Invitrogen (Carlsbad, Calif., USA)
As to the kind of experiment: Inhibition of conventional PKCγ (Example 4). Conditions: 10 μM inhibitor; n = 3; read-out: Percent inhibition of PKC activity, PKCγ.
From the text: as §1, §2

Test [7] has as its target T5, PKCζ (Homo sapiens, UniProt Q05513).
T5 construct: purchased Invitrogen (Carlsbad, Calif., USA)
T5 sequence (Q05513 1-592): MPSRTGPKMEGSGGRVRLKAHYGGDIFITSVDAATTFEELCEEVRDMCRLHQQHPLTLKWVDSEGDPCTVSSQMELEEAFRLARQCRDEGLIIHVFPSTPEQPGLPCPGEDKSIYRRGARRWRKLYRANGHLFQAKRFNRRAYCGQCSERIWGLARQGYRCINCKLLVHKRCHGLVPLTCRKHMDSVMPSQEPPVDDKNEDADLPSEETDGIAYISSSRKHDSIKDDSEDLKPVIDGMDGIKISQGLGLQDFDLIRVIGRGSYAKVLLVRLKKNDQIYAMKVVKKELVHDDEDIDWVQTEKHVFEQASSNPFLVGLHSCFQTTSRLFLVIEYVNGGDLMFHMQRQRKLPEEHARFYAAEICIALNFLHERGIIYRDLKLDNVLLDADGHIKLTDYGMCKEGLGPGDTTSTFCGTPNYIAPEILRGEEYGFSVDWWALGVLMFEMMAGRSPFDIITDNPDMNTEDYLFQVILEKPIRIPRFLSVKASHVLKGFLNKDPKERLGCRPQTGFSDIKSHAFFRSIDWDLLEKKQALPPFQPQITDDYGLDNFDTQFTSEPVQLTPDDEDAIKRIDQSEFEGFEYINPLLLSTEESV
Nature of the test: Inhibition of atypical PKCζ (Example 4). The following applies: for activity against atypical PKCζ: 10 μM; for inhibition at 10 µM: 10 μM inhibitor, n = 3, read-out: Percent inhibition of PKC activity, PKCζ.
From the text: as §1, §2

Where [8] appears, read: selection criterion for Example 4, read-out: Ki for PKCε.

T3 sequence (Q04759 whole entry): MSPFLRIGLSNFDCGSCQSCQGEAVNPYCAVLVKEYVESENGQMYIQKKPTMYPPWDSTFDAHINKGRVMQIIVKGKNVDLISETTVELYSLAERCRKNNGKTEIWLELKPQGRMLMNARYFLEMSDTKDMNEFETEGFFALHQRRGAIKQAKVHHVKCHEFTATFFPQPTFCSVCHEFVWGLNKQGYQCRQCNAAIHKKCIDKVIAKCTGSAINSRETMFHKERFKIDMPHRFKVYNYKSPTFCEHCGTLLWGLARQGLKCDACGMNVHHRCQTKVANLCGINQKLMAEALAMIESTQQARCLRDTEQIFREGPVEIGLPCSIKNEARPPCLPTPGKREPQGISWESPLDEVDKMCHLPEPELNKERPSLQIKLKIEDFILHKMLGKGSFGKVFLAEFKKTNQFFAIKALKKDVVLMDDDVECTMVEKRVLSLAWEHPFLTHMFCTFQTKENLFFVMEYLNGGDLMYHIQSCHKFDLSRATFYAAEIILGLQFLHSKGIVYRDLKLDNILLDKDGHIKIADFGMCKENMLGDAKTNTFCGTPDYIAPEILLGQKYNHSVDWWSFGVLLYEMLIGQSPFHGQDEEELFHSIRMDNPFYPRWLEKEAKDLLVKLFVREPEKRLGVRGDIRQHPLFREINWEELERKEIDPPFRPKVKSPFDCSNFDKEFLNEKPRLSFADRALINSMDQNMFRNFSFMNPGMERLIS
T2 sequence (Q05655 whole entry): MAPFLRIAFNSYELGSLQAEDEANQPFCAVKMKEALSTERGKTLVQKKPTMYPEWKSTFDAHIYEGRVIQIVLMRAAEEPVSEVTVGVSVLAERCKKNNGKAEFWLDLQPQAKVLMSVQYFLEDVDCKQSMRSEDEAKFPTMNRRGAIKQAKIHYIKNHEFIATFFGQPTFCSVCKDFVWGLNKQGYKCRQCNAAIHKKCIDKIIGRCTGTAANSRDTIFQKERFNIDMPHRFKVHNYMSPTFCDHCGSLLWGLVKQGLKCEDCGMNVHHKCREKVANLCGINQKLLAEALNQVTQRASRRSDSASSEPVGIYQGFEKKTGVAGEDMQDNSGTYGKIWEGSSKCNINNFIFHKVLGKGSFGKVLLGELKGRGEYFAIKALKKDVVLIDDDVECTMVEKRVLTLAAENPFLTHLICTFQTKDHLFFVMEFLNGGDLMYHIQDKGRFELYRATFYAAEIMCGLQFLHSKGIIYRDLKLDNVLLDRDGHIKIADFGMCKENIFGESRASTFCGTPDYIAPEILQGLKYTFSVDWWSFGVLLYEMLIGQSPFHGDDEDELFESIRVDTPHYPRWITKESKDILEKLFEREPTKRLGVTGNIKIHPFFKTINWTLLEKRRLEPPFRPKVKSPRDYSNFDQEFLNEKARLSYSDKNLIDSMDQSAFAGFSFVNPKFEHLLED

Take `NC(C(=O)NC1CCCc2ccccc21)[C@H]1CC[C@H](C(=O)Nc2ccncc2)CC1` (stereo partly shown) [Compound 11]: the IC50 in test [1] (read-out: Log IC50 (converted)) was 3090 nM.

Consider `NC(CC(=O)NCC1(c2ccc(Cl)cc2)CC1)[C@H]1CC[C@H](C(=O)Nc2ccncc2)CC1` (relative stereo) [Compound 2, trans-4-[1-Amino-2-[[[1-(4-chlorophenyl)cyclopropyl]methylamino]carbonyl]ethyl]-N-4-pyridinyl-cyclohexylcarboxamide], for which the concentration for half-maximal inhibition (IC50) in test [2] was 1690 nM; in test [1], 3240 nM.

Consider `Cl.NC(CNC(=O)C1(c2ccc(F)cc2)CCCC1)[C@H]1CC[C@H](C(=O)Nc2ccncc2)CC1` (stereo partly shown) [Compound 5], for which the inhibition at 10 µM in test [3] stood at 96.4 ± 1%; in test [5], 94.4 ± 1%; in test [6] it was 17 ± 1.3%; in test [7] it was 6.3 ± 2.1%. Moreover, the inhibition constant (Ki) in test [3] was 125 nM; in test [4] (n = 3, read-out: Ki (nM) PKCε), 12.8 nM; in test [4] (setting [8]), less than 20 nM; in test [5], 86.9 nM. Further, the IC50 in test [3] is 5.25e-07 M; in test [1] (read-out: IC50), 42.6 nM; in test [1] (read-out: Log IC50 (converted)), 42.7 nM; in test [4] (n = 3) it was 4.27e-08 M; in test [5], 3.63e-07 M. Also, the “activity against atypical PKCζ” value in test [7] is “almost no activity”.

As for `NC(C(=O)NC1COc2ccccc21)[C@H]1CC[C@H](C(=O)Nc2ccncc2)CC1` (stereo partly shown) [Compound 10], the IC50 in test [1] (read-out: Log IC50 (converted)) is 2020 nM.

On to `CC(C)(C(=O)NCC(N)[C@H]1CC[C@H](C(=O)Nc2ccncc2)CC1)c1ccc(Cl)cc1.Cl` (stereo partly shown) [Compound 9], for which the inhibition at 10 µM in test [3] stood at 98.9 ± 0.6%; in test [5] it was 99.6 ± 1.3%; in test [6] it was 30 ± 3.3%; in test [7], 8.9 ± 1.8%. Moreover, the Ki in test [3] is 66.5 nM; in test [4] (n = 3, read-out: Ki (nM) PKCε), 9.3 nM; in test [4] (setting [8]) it was less than 20 nM; in test [5], 67 nM. Besides, the IC50 was 2.69e-07 M in test [3], 40 nM in test [1] (read-out: Log IC50 (converted)), 3.8e-08 M in test [4] (n = 3) and 2.75e-07 M in test [5]. In addition, in test [7], the “activity against atypical PKCζ” value is reported as “almost no activity”.

Consider `NC(C(=O)NCc1ccc(F)cc1)[C@H]1CC[C@H](C(=O)Nc2ccncc2)CC1` (stereo partly shown) [Compound 12], for which, in test [1] (read-out: Log IC50 (converted)), the 50% inhibitory concentration (IC50) is 2370 nM.

With `NC(CNC(=O)C1(c2ccc(F)cc2)CC1)[C@H]1CC[C@H](C(=O)Nc2ccncc2)CC1` (stereo partly shown) [Compound 3], the half-inhibitory concentration (IC50) in test [1] (read-out: Log IC50 (converted)) was 146 nM.

As for `CC(C)(C(=O)NCC(N)[C@H]1CC[C@H](C(=O)Nc2ccncc2)CC1)c1cccs1` (stereo partly shown) [Compound 7], the IC50 in test [1] (read-out: Log IC50 (converted)) is 280 nM.

`NC(CNC(=O)C1(c2ccc(F)cc2Cl)CCCC1)[C@H]1CC[C@H](C(=O)Nc2ccncc2)CC1` (stereo partly shown) [Compound 4]: the half-maximal inhibitory concentration (IC50) in test [1] (read-out: Log IC50 (converted)) was 121 nM.

Turning to `NC(CNC(=O)C1CCc2cc(Cl)ccc21)[C@H]1CC[C@H](C(=O)Nc2ccncc2)CC1` (stereo partly shown) [Compound 8], the half-maximal inhibitory concentration (IC50) in test [1] (read-out: Log IC50 (converted)) was 359 nM.

With `NC(CNC(=O)C1(c2ccc(F)c(F)c2)CC1)[C@H]1CC[C@H](C(=O)Nc2ccncc2)CC1` (stereo partly shown) [Compound 6], the IC50 in test [1] (read-out: IC50) was 52.2 nM.
